Source: US20230143775A1, “METHODS OF TREATING CORONAVIRUS INFECTIONS” (EAGLE PHARMACEUTICALS, INC., priority 2020, published 2023)
Values after ≈ are worked out from the molar mass of the structure shown.

Key:
SARS-CoV-2 = experiment: Virus neutralization (VN) assay, scoring SARS-CoV-2 cytopathic effects (CPE) in Vero E6 cells; type: cell-based; conditions: for Day 2 Read (CPE) / Day 4 Read (CPE) / Day 6 Read (CPE): triplicate wells
uninfected Vero E6 cells = conditions: lower dilutions (<50 μM dantrolene), without virus
[1] = 20 μM dantrolene (as […]), […], Vero E6 cells
[2] = 30 μM dantrolene (as […]), […], Vero E6 cells
[3] = 40 μM dantrolene (as […]), […], Vero E6 cells

Question: Which “Day 2 Read (CPE)” value (SARS-CoV-2; [1]) does the source give for `O=C1CN(/N=C/c2ccc(-c3ccc([N+](=O)[O-])cc3)o2)C(O)=N1` [dantrolene] here?
Answer: The value was 3/3 wells had No CPE.

Question: And the “Day 4 Read (CPE)” value (SARS-CoV-2; [1])?
Answer: Its value is 3/3 wells had No CPE.

Question: What about the “Day 6 Read (CPE)” value (SARS-CoV-2; [1]) of the same compound?
Answer: The value was 3/3 wells had No CPE.

Question: And the “Day 2 Read (CPE)” value (SARS-CoV-2; [2])?
Answer: Its value is 3/3 wells had No CPE.

Question: What about the “Day 4 Read (CPE)” value (SARS-CoV-2; [2]) of the same compound?
Answer: Its value is 3/3 wells had No CPE.

Question: And the “Day 6 Read (CPE)” value (SARS-CoV-2; [2])?
Answer: Its value is 3/3 wells had No CPE.

Question: And the “Day 2 Read (CPE)” value (SARS-CoV-2; [3])?
Answer: Its value is 3/3 wells had No CPE.

Question: And the “Day 4 Read (CPE)” value (SARS-CoV-2; [3])?
Answer: Its value is 3/3 wells had No CPE.

Question: What about the “Day 6 Read (CPE)” value (SARS-CoV-2; [3]) of the same compound?
Answer: The value was 3/3 wells had No CPE.

Question: And the “Day 6 Read (CPE)” value (SARS-CoV-2; 100 μM dantrolene (as […]), […], Vero E6 cells)?
Answer: Its value is 3/3 wells had >90%.

Question: What about the CPE (SARS-CoV-2; 20-40 μM of dantrolene, […]) of the same compound?
Answer: The CPE was “no CPE was observed”.

Question: What about the “cytopathic effects (indicating virus growth)” value (SARS-CoV-2; 20 and 40 μM dantrolene, all timepoints) of the same compound?
Answer: Its value is “No cytopathic effects”.

Question: And the MIC (SARS-CoV-2; Severe acute respiratory syndrome coronavirus 2, no CPE across all time points (Days 2, 4, 6), Vero E6 cells, read-out: minimum inhibitory concentration)?
Answer: The MIC was 20 µM (≈ 6.29 µg/mL).

Question: And the anti-viral activity (SARS-CoV-2; lower concentrations of 10 and 5 μM)?
Answer: Its anti-viral activity is “showed anti-viral activity”.

Question: And the “cell viability of uninfected Vero E6 cells” value (uninfected Vero E6 cells)?
Answer: The value was “good cell viability”.
